Data set [1] in a line: Absorption maximum of the dye. It counts as physicochemical. The text has this:
(§1) Examples of the compounds according to the invention are listed in Tables 2-6, where the structures as well as the absorption and fluorescence maxima are indicated. The spectra of selected compounds are shown FIGS. 5-18.

A short description of data set [2]: Fluorescence maximum of the dye. Conditions: solvent PBS pH 7.4. Type of data set: physicochemical.
Description: as §1

Marks after values point to notes of the source that are not given here.

Take `CC1(C)c2c(cc3c4c2CCCN4CCC3)C=c2cc3c(cc21)=[N+](Cc1ccc(S(=O)(=O)O)cc1S(=O)(=O)O)CCC3` [Compound 79]: the λabs in data set [1] (solvent PBS pH 7.4) is on record as 627^b nm. Besides, the λfl in data set [2] is given as 649^b nm.
As to `Cc1c(CC(=O)O)c(=O)oc2cc(NCS(=O)(=O)O)ccc12` [Compound 110], the λabs in data set [1] (solvent PBS pH 7.4) is given as 354^b nm. Moreover, the λfl in data set [2] was 353^b nm.
With `CN(C)c1ccc2c(c1)C(C)(C)c1cc3c(cc1=C2)CCC[N+]=3Cc1ccc(S(=O)(=O)O)cc1S(=O)(=O)O` [Compound 76], the λabs in data set [1] (solvent PBS pH 7.4) is 596^b nm. Also, in data set [2], the λfl is given as 622^b nm.
The matching figures for `CC1(C)C=C(CS(=O)(=O)O)c2cc3c(cc2N1Cc1ccc(S(=O)(=O)O)cc1S(=O)(=O)O)Oc1cc2c(cc1=N3)C(CS(=O)(=O)O)=CC(C)(C)[N+]=2CCCC(=O)O` [Compound 100]: 701^b nm and 718^b nm.
The matching figures for `CN(CCCC(=O)O)C(=O)c1ccccc1C1=c2cc3c(cc2C(C)(C)c2cc4c(cc21)C(CS(=O)(=O)O)CC(C)(C)N4Cc1ccc(S(=O)(=O)O)cc1S(=O)(=O)O)=[N+](Cc1ccc(S(=O)(=O)O)cc1S(=O)(=O)O)C(C)(C)CC3CS(=O)(=O)O` (stereo not shown) [Compound 68]: 645^b nm and 666^b nm.
`CN(CCCC(=O)O)C(=O)c1ccccc1-c1c2cc(S(=O)(=O)O)/c(=N/CCc3ccc(S(=O)(=O)O)cc3)cc-2oc2cc(NCCc3ccc(S(=O)(=O)O)cc3)ccc12` [Compound 22]: the λabs in data set [1] (solvent water/acetonitrile 1:1) is 536^c nm. The λfl in data set [2] was 558^b nm.
`CN(CCCC(=O)O)C(=O)c1ccccc1C1=c2cc3c(cc2C(C)(C)c2cc4c(cc21)C(CS(=O)(=O)O)=CC(C)(C)N4Cc1ccc(S(=O)(=O)O)cc1S(=O)(=O)O)=[N+](Cc1ccc(S(=O)(=O)O)cc1S(=O)(=O)O)C(C)(C)C=C3CS(=O)(=O)O` [Compound 67]: the λabs in data set [1] (solvent PBS pH 7.4) was 679^b nm. Besides, the λfl in data set [2] is listed as 707^b nm.
The matching figures for `CC1(C)C=C(CS(=O)(=O)O)c2cc3c(cc2N1Cc1ccc(S(=O)(=O)O)cc1S(=O)(=O)O)[Si](C)(C)c1cc2c(cc1=C3c1cc(C(=O)O)ccc1C(=O)O)C(CS(=O)(=O)O)=CC(C)(C)[N+]=2Cc1ccc(S(=O)(=O)O)cc1S(=O)(=O)O` [Compound 72]: 711^b nm and 740^b nm.
Take `Cn1cc[n+](CCCC(=O)O)c1C1=c2cc3c(cc2[Si](C)(C)c2cc4c(cc21)C(CS(=O)(=O)O)CC(C)(C)N4Cc1ccc(S(=O)(=O)O)cc1S(=O)(=O)O)=[N+](Cc1ccc(S(=O)(=O)O)cc1S(=O)(=O)O)C(C)(C)CC3CS(=O)(=O)O` (stereo not shown) [Compound 63]: the λabs in data set [1] (solvent PBS pH 7.4) was 752^b nm. The λfl in data set [2] was 776^b nm.
The matching figures for `CCN1c2cc3c(cc2C(CS(=O)(=O)O)=CC1(C)C)C(c1n(C)cc[n+]1CCCCS(=O)(=O)O)=c1cc2c(cc1C3(C)C)=[N+](Cc1ccc(S(=O)(=O)O)cc1S(=O)(=O)O)CCC2` [Compound 55]: 725^b nm and 749^b nm.
As for `Cc1c(CC(=O)O)c(=O)oc2cc(NCc3ccc(S(=O)(=O)O)cc3S(=O)(=O)O)c(S(=O)(=O)O)cc12` [Compound 111], in data set [1] (solvent PBS pH 7.4), the λabs is given as 348^b nm. Moreover, the λfl in data set [2] is 449^b nm.
Take `Cc1cc(=O)n(CC(=O)O)c2cc(Nc3nc(NCCS(=O)(=O)O)nc(NCCS(=O)(=O)O)n3)ccc12` [Compound 115]: the λabs in data set [1] (solvent PBS pH 7.4) is on record as 335^b nm. Also, the λfl in data set [2] is on record as 383^b nm.
With `CC[N+]1=c2cc3c(cc2C(CS(=O)(=O)O)=CC1(C)C)=C(c1ccc(C(=O)O)cc1)c1cc2c(cc1C3(C)C)N(Cc1ccc(S(=O)(=O)O)cc1S(=O)(=O)O)C(C)(C)C=C2CS(=O)(=O)O` [Compound 64], in data set [1] (solvent PBS pH 7.4), the λabs was 667^b nm. Moreover, the λfl in data set [2] is 697^b nm.
The matching figures for `C[N+](C)=C1C=CC2=C(NC(CCS(=O)(=O)O)C(=O)O)c3cc4c(cc3C(C)(C)C2=C1)N(Cc1ccc(S(=O)(=O)O)cc1S(=O)(=O)O)CCC4` (stereo not shown) [Compound 85]: 496^b nm and 673^b nm.

The record behind these values is patent US11180657B2, “Polysulfonated fluorescence dyes” (ATTO-TEC GmbH, priority 2017, dated 2021).
